Experimental data taken from ChEMBL document CHEMBL5665443, “Enzyme Inhibitor Single Concentration assay results for EUbOPEN Chemogenomics Library” (2024).

Experiments:
[1] = target: DNA-3-methyladenine glycosylase (Homo sapiens) (UniProt P29372); conditions: Compound Concentration 10.0 uM, Hit No;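 further: enzyme assay where MPG cuts a quenched duplex DNA oligonucleotide probe, paired with APE1 for strand incision and turnover, read as fluorescence at 594 nm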
Description: Inhibition of MPG by quantifying inhibition of MPG-mediated cleavage and dissociation of quenched duplex DNA oligonucleotides, measured as fluorescence at 594 nm. To generate a functional strand incision and increase turn-over this assay is coupled to APE1.

[2] = target: Uracil-DNA glycosylase (Homo sapiens) (UniProt P13051); conditions: Compound Concentration 10.0 uM, Hit No;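 further: UNG excision on a quenched double-stranded DNA oligo probe, with APE1 added for strand incision and turnover, read as fluorescence at 594 nm as strands separate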
Sequence of Uracil-DNA glycosylase (Homo sapiens) (P13051 whole entry): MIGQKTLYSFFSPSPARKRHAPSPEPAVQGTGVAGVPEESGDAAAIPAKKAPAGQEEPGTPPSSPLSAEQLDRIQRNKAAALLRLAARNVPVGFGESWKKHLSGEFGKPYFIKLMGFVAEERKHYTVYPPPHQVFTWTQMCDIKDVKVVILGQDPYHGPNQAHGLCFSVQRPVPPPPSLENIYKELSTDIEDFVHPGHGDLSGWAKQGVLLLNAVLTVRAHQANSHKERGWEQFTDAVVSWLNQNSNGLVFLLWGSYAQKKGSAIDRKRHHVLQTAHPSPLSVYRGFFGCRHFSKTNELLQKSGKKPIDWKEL
Description: Inhibition of UNG by quantifying inhibition of UNG-mediated cleavage and dissociation of quenched duplex DNA oligonucleotides, measured as fluorescence at 594 nm. To generate a functional strand incision and increase turn-over this assay is coupled to APE1.

[3] = target: T1, Endonuclease III-like protein 1 (Homo sapiens) (UniProt P78549); conditions: Compound Concentration 10.0 uM, Hit No;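 further: enzyme assay tracking NTHL1 cutting and release of a quenched double-stranded DNA oligo substrate, read as fluorescence at 594 nm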
T1 sequence (whole entry): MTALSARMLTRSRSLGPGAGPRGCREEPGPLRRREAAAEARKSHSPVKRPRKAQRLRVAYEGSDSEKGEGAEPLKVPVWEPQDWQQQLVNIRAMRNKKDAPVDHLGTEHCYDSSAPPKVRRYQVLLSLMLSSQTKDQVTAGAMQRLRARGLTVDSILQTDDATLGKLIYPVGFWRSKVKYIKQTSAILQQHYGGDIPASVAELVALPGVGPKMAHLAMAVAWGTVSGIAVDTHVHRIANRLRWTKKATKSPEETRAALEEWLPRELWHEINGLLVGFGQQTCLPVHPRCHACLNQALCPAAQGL
Description: Inhibition of NTHL1 by quantifying inhibition of NTHL1-mediated cleavage and dissociation of quenched duplex DNA oligonucleotides, measured as fluorescence at 594 nm.

[4] = target: G/T mismatch-specific thymine DNA glycosylase (Homo sapiens) (UniProt Q13569); conditions: Compound Concentration 10.0 uM, Hit No;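 further: human TDG cleavage of quenched duplex DNA oligonucleotides coupled to APE1, strand release read as fluorescence at 594 nm, inhibition of TDG activity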
Sequence of G/T mismatch-specific thymine DNA glycosylase (Homo sapiens) (Q13569 whole entry): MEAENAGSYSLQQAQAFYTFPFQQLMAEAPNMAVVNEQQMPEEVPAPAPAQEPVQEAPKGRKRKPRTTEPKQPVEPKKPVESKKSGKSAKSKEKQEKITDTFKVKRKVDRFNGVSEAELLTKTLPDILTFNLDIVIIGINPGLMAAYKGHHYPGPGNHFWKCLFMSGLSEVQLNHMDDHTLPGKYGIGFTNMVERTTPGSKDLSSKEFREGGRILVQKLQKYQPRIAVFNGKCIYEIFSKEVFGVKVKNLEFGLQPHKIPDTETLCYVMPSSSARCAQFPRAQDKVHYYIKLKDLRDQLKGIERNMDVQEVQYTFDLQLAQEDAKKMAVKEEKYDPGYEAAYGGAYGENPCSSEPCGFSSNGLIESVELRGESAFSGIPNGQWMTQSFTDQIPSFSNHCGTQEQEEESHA
Description: Inhibition of TDG by quantifying inhibition of TDG-mediated cleavage and dissociation of quenched duplex DNA oligonucleotides, measured as fluorescence at 594 nm. To generate a functional strand incision and increase turn-over this assay is coupled to APE1.

[5] = target: T2, Adenine DNA glycosylase (Homo sapiens) (UniProt Q9UIF7); conditions: Compound Concentration 10.0 uM, Hit No;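 further: human MUTYH activity read as 594 nm fluorescence from cleavage and release of a quenched DNA duplex, coupled with APE1 for strand incision, lower signal meaning inhibition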
T2 sequence (whole entry): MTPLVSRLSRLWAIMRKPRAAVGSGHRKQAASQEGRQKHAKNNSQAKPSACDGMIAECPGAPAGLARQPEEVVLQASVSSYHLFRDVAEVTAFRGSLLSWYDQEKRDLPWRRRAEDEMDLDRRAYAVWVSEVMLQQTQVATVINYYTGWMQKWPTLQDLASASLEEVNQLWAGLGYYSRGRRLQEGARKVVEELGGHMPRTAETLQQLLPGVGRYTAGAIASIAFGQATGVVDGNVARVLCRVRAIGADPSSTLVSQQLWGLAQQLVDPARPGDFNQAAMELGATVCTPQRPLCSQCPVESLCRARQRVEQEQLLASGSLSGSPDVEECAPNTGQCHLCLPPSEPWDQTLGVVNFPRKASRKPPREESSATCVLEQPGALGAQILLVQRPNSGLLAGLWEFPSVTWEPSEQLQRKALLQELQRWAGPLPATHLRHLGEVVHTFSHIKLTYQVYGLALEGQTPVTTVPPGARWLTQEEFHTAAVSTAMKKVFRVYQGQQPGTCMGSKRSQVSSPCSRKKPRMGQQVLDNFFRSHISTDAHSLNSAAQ
Description: Inhibition of MUTYH by quantifying inhibition of MUTYH-mediated cleavage and dissociation of quenched duplex DNA oligonucleotides, measured as fluorescence at 594 nm. To generate a functional strand incision and increase turn-over this assay is coupled to APE1.

[6] = target: N-glycosylase/DNA lyase (Homo sapiens) (UniProt O15527); conditions: Compound Concentration 10.0 uM, Hit No;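 further: OGG1 cleavage of a quenched duplex DNA oligonucleotide, coupled to APE1 for strand incision, read as fluorescence at 594 nm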
Sequence of N-glycosylase/DNA lyase (Homo sapiens) (O15527 whole entry): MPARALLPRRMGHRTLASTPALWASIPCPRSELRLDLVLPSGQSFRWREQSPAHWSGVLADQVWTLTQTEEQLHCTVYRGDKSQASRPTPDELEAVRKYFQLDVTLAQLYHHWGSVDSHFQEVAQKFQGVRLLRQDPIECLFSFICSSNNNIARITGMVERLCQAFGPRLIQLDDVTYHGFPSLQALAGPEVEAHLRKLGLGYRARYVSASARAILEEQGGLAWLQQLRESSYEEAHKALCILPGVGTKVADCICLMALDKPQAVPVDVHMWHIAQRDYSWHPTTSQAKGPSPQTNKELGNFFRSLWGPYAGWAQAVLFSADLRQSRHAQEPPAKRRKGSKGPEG
Description: Inhibition of OGG1 by quantifying inhibition of OGG1-mediated cleavage and dissociation of quenched duplex DNA oligonucleotides, measured as fluorescence at 594 nm. To generate a functional strand incision and increase turn-over this assay is coupled to APE1.

[7] = target: T3, Endonuclease 8-like 2 (Homo sapiens) (UniProt Q969S2); conditions: Compound Concentration 10.0 uM;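 further: fluorescence at 594 nm reports NEIL2 cutting and release of a quenched double-stranded DNA oligo substrate, reduced signal read as inhibition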
T3 sequence (whole entry): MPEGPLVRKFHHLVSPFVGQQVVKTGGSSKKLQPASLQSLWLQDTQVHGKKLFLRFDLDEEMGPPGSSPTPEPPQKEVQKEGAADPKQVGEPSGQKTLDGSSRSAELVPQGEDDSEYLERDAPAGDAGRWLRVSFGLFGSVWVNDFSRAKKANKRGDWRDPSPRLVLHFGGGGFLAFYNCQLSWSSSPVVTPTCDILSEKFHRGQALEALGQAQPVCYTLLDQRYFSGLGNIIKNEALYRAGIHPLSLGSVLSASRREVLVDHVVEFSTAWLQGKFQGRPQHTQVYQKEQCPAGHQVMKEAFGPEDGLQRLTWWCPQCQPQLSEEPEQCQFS
Description: Inhibition of NEIL2 by quantifying inhibition of NEIL2-mediated cleavage and dissociation of quenched duplex DNA oligonucleotides, measured as fluorescence at 594 nm.

[8] = target: Methyl-CpG-binding domain protein 4 (Homo sapiens) (UniProt O95243); conditions: Compound Concentration 10.0 uM, Hit No;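 further: MBD4 activity read as fluorescence at 594 nm from cleavage and release of a quenched duplex DNA oligonucleotide, with APE1 coupled to incise the strand and raise turnover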
Sequence of Methyl-CpG-binding domain protein 4 (Homo sapiens) (O95243 whole entry, the tested form may be a part): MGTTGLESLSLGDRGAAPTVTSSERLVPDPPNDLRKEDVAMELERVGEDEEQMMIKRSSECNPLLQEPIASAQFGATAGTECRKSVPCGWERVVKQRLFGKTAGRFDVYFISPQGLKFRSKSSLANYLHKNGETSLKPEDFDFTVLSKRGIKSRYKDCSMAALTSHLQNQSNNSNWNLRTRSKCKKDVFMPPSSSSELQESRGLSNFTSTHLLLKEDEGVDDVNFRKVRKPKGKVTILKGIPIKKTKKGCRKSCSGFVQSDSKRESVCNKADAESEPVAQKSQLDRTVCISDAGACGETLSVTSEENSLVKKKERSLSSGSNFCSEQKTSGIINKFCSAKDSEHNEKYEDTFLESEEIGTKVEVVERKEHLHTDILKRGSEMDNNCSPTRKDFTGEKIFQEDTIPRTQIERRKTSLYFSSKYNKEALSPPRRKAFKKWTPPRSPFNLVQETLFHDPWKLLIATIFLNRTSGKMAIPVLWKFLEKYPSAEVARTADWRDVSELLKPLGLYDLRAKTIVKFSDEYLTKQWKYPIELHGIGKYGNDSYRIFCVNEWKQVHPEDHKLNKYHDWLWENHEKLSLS
Description: Inhibition of MBD4 by quantifying inhibition of MBD4-mediated cleavage and dissociation of quenched duplex DNA oligonucleotides, measured as fluorescence at 594 nm. To generate a functional strand incision and increase turn-over this assay is coupled to APE1.

[9] = target: Endonuclease 8-like 1 (Homo sapiens) (UniProt Q96FI4); conditions: Compound Concentration 10.0 uM, Hit No;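 further: fluorescence at 594 nm from quenched duplex DNA oligonucleotides released by NEIL1 cleavage and strand separation, reported as reduction of this enzyme activity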
Sequence of Endonuclease 8-like 1 (Homo sapiens) (Q96FI4 whole entry): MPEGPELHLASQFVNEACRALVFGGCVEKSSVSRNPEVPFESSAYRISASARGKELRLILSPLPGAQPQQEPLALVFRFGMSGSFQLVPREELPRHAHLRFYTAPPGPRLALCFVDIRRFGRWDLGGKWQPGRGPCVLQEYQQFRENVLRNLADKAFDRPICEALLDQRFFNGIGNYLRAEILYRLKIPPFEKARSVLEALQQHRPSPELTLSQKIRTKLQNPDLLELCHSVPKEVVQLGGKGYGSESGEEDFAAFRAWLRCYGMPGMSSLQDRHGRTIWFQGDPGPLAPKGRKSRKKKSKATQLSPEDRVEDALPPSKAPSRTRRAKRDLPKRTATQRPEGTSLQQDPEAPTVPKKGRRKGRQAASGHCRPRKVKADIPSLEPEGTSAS
Description: Inhibition of NEIL1 by quantifying inhibition of NEIL1-mediated cleavage and dissociation of quenched duplex DNA oligonucleotides, measured as fluorescence at 594 nm.

Sequence of DNA-3-methyladenine glycosylase (Homo sapiens) (P29372 whole entry): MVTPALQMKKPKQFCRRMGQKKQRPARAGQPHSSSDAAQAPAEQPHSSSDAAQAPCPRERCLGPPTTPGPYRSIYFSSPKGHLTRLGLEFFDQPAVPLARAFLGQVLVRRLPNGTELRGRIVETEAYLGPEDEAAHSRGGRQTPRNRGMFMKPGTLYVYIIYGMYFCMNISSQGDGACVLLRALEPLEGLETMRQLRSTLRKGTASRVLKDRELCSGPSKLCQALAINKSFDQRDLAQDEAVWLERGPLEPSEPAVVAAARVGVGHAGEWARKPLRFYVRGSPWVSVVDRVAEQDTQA

Row | SMILES | inhibition [1] | inhibition [2] | inhibition [3] | inhibition [4] | inhibition [5] | inhibition [6] | inhibition ([7]; Hit No) | inhibition [8] | inhibition [9] | inhibition ([7]; Hit Yes)
1 | Cc1cc(NC(=O)NCCN2CCC(O)(Cc3ccccc3)CC2)c2ccccc2n1 | -4.68% | -0.672% | -6.04% | 11.4% | 17.8% | -6.59% | -1.88% | 28.9% | – | –
2 | O=C(Nc1ccc(Cl)cc1)N[C@@H](Cc1ccccc1)C(=O)N1CCCCC1 | 30.7% | -3.64% | 17.9% | 22.9% | 13.5% | -1.34% | -3.15% | 27.2% | 0.898% | –
3 | COc1cc(C(C)C)c(Oc2cnc(NC(CO)CO)nc2N)cc1I | -3.99% | -4.17% | 6.35% | -1.74% | 2% | -8.24% | – | -6.99% | -4.73% | –
4 | CCCCCCCCCCCCCCC[C@@H](O)[C@@H](N)COP(=O)(O)O | 9.63% | -5.95% | 5.59% | 3% | -9.71% | -0.598% | 4.76% | -8.45% | 6.76% | –
5 | COc1cc2nc(N(C)CCCNC(=O)C3CCCO3)nc(N)c2cc1OC (configuration not stated) | 21.4% | -4.94% | 27.8% | 16.1% | 34.2% | -9.24% | – | 25.4% | -3.84% | 32.3%
6 | COc1cccc(OC)c1-c1cc(C(=O)NC2(C(=O)O)C3CC4CC(C3)CC2C4)nn1-c1ccnc2cc(Cl)ccc12 (configuration not stated) | 18.6% | -7.21% | 24.6% | 45.2% | 53.6% | 23.9% | -7.72% | 44.5% | -4.95% | –
7 | CCCCC/C=C\C/C=C\C/C=C\C/C=C\CCCC(=O)OC(CO)CO | 3.34% | -9.11% | 9.99% | 27% | 14.2% | 1.41% | 12% | 28.4% | 4.39% | –
8 | C[C@@H](Cn1c(=O)[nH]/c(=N\c2ccc(Oc3ccccn3)cc2)n(Cc2ccc(Cl)cc2)c1=O)C(=O)O | 14.7% | -3.28% | 24.5% | 23.6% | 14.4% | -4.95% | 5.25% | 25.3% | 5.49% | –
9 | FC(F)(F)c1ccc(N2CCNCC2)nc1Cl | 8.14% | -2.44% | 11.3% | 27.6% | -0.34% | -4.95% | -1.62% | 12.7% | -3.1% | –
10 | CC1(C)CC(=O)c2c(SCCO)sc(-c3nccs3)c2C1 | 8.86% | -4.5% | 28.6% | 13.8% | 15.5% | -7.89% | 1.94% | 23.5% | -2.21% | –
11 | Cc1ccccc1C#Cc1ccc(CCC(=O)O)cc1 | 10.7% | -2.61% | 6.35% | 14.4% | 12.8% | 8.7% | 1.69% | 11.2% | -4.44% | –
12 | O=C(O)c1cccc(/C=C2/C[C@@H]3[C@@H](/C=C/[C@H](O)C4CCCCC4)[C@H](O)C[C@@H]3O2)c1 | 18.3% | -4.36% | 15.4% | 21.2% | 18.1% | -8.69% | -5.7% | 16.8% | -8.73% | –
13 | Clc1ccc(C2CC3CCC2N3)cn1 (configuration not stated) | -6.44% | -9.39% | 7.17% | 20.8% | -3.17% | -8.75% | -3.41% | 11.8% | -1.03% | –
14 | CN1CCN2c3ccccc3Cc3ccccc3C2C1 (configuration not stated) | 9.97% | -6.73% | -6.86% | 1.8% | 1.87% | -6.17% | – | 11.7% | -1.32% | –
15 | Cn1c(=O)n(CCCO)c(=O)c2c1nc(Oc1cccc(Cl)c1)n2Cc1ccc(Cl)cc1 | 11.6% | 0.363% | 12.1% | 8.76% | 15.9% | -1.16% | – | 23.2% | 2.53% | –
16 | CN1CCc2cc(Cl)c(O)cc2[C@@H](c2ccccc2)C1 | 10.9% | -3.84% | 4.7% | 3.73% | 14.8% | -2.12% | 3.22% | 14.5% | -6.51% | –
17 | CN(C)CCn1cc(S(=O)(=O)c2cccc(F)c2)c2cccnc21 | 4.26% | -6.74% | 10.5% | 2.84% | 1.09% | -9.57% | – | 7% | -6.66% | –
18 | O=c1ccc2c(OCCCCOc3ccccc3)c3ccoc3cc2o1 | 29.9% | -5.58% | 3.87% | -7.24% | 3.71% | 3.75% | – | 11.1% | -4.29% | –
19 | O=C(O)CCC/C=C\C[C@H]1C(=O)C[C@@H](O)[C@@H]1/C=C/[C@@H](O)CCc1ccccc1 | -3.36% | -6.21% | 14.6% | 20.6% | 15.1% | -5.63% | – | 13.3% | -9.47% | –
20 | CCCCCCCC/C=C\CCCCCCCC(=O)NCc1ccc(O)c(OC)c1 | -5.12% | -4.89% | -7.69% | 13.7% | 5.55% | -7.56% | – | 18.2% | – | –
21 | CS(=O)(=O)Nc1c(O)ccc2c1CCCC2C1=NCCN1 (configuration not stated) | 2.87% | -0.201% | 13.8% | -0.654% | 23.1% | -9.24% | – | 17.6% | 2.08% | –
22 | C[S+]([O-])c1ccc(-c2nc(-c3ccc(F)cc3)c(-c3ccncc3)[nH]2)cc1 (configuration not stated) | 10.5% | -3.45% | 15.1% | 17.7% | 13.8% | 6.37% | -0.483% | 16.5% | -8.51% | –
23 | CCCN[C@H]1CCc2nc(N)sc2C1 | -0.406% | -5.95% | 22% | 19.3% | 13.4% | -6.43% | – | 9.06% | -3.55% | –
24 | Nc1nc(Nc2ccccc2)nc2c1ncn2[C@@H]1O[C@H](CO)[C@@H](O)[C@H]1O | -7.65% | -5.2% | 1.39% | 10.5% | -1.27% | 6.96% | – | 11.6% | -6.51% | –
25 | Cc1nccn1CC1CCc2c(c3ccccc3n2C)C1=O (configuration not stated) | 13.8% | -9.34% | 22% | 0.598% | 19% | -7.85% | – | 17% | 6.23% | –
